Measured values: article PMC11995724, “Antibiotic target discovery by integrated phenotypic and activity-based profiling of electrophilic fragments” (Cell chemical biology, 2025)

Assay: in vitro
Conditions: human, hek293t cells

Row | SMILES | viability at 48 h, 25 µM
1 | Cc1cc(=O)[nH]c(-c2cccc(NC(=O)C(C#N)=Cc3ccco3)c2)n1 [8-B10, 2-cyano-3-(furan-2-yl)-N-[3-(4-methyl-6-oxo-1,6-dihydropyrimidin-2-yl)phenyl]prop-2-enamide] | 57.8%
2 | N#CC(=Cc1ccccc1Cl)C(=O)Nc1ccc(Cl)cc1 [8-B11, 3-(2-chlorophenyl)-N-(4-chlorophenyl)-2-cyanoprop-2-enamide] | 113%
3 | Cc1ccccc1N1C(=O)CSC1=C(C#N)C(=O)N1CCCCC1 [8-B12, 2-[3-(2-methylphenyl)-4-oxo-1,3-thiazolidin-2-ylidene]-3-oxo-3-(piperidin-1-yl)propanenitrile] | 113%
4 | Cc1ccsc1C=C(C#N)C(=O)N1CCN(c2ccccc2)CC1 [8-B13, 3-(3-methylthiophen-2-yl)-2-(4-phenylpiperazine-1-carbonyl)prop-2-enenitrile] | 92.4%
5 | N#CC(=Cc1c(Cl)cccc1Cl)C(=O)NCCc1ccccc1 [8-B14, 2-cyano-3-(2,6-dichlorophenyl)-N-(2-phenylethyl)prop-2-enamide] | 2%
6 | COc1ccccc1NC(=O)C(C#N)=Cc1ccc(C)s1 [8-B15, 2-cyano-N-(2-methoxyphenyl)-3-(5-methylthiophen-2-yl)prop-2-enamide] | 103%
7 | N#CC(=Cc1ccc(O)cc1)C(=O)NCc1ccc(Cl)cc1 [8-B16, N-[(4-chlorophenyl)methyl]-2-cyano-3-(4-hydroxyphenyl)prop-2-enamide] | 102%
8 | Cc1cc(C)c(NC(=O)C(C#N)=Cc2cccnc2)c(C)c1 [8-B17, 2-cyano-3-(pyridin-3-yl)-N-(2,4,6-trimethylphenyl)prop-2-enamide] | 122%
9 | Cc1c(C=C(C#N)C(=O)Nc2nccs2)cc(C#N)n1C [8-B18, 2-cyano-3-(5-cyano-1,2-dimethyl-1H-pyrrol-3-yl)-N-(1,3-thiazol-2-yl)prop-2-enamide] | 94.1%
10 | N#CC(=Cc1ccncc1)C(=O)Nc1cccc(Cl)c1 [8-B19, N-(3-chlorophenyl)-2-cyano-3-(pyridin-4-yl)prop-2-enamide] | 85.5%
11 | N#CC(=Cc1ccco1)C(=O)Nc1cccc2ncccc12 [8-B20, 2-cyano-3-(furan-2-yl)-N-(quinolin-5-yl)prop-2-enamide] | 85.9%
12 | N#CC(=Cc1cccnc1)C(=O)Nc1ccc(F)cc1 [8-B21, 2-cyano-N-(4-fluorophenyl)-3-(pyridin-3-yl)prop-2-enamide] | 125%
13 | N#CC(=Cc1cccc([N+](=O)[O-])c1)C(=O)NCc1ccccc1 [8-B22, N-benzyl-2-cyano-3-(3-nitrophenyl)prop-2-enamide] | 32%
14 | COc1ccc(C=C(C#N)C(=O)Nc2ccc(Cl)c(Cl)c2)cc1 [8-C03, 2-cyano-N-(3,4-dichlorophenyl)-3-(4-methoxyphenyl)prop-2-enamide] | 99.6%
15 | N#CC(=Cc1ccc(N2CCCCC2)cc1)C(=O)Nc1nccs1 [8-C04, 2-cyano-3-[4-(piperidin-1-yl)phenyl]-N-(1,3-thiazol-2-yl)prop-2-enamide] | 97.1%
16 | COc1ccc(C=C(C#N)C(=O)Nc2ccc([N+](=O)[O-])cc2)cc1 [8-C05, 2-cyano-3-(4-methoxyphenyl)-N-(4-nitrophenyl)prop-2-enamide] | 81.5%
17 | N#CC(=Cc1ccc(-c2ccccc2)cc1)C(=O)NCc1ccccc1 [8-C06, N-benzyl-3-{[1,1'-biphenyl]-4-yl}-2-cyanoprop-2-enamide] | 81.4%
18 | N#CC(=Cc1ccc(-c2cccc([N+](=O)[O-])c2)o1)C(=O)N1CCOCC1 [8-C07, 2-(morpholine-4-carbonyl)-3-[5-(3-nitrophenyl)furan-2-yl]prop-2-enenitrile] | 79.1%
19 | CC(C)NC(=O)C(C#N)=Cc1cc(F)ccc1F [8-C08, 2-cyano-3-(2,5-difluorophenyl)-N-(propan-2-yl)prop-2-enamide] | 138%
20 | COc1ccc(C=C(C#N)C(=O)NCc2ccccc2)cc1O [8-C09, N-benzyl-2-cyano-3-(3-hydroxy-4-methoxyphenyl)prop-2-enamide] | 66.6%
21 | N#CC(=Cc1cc(F)ccc1F)C(=O)Nc1ccc(F)cc1F [8-C10, 2-cyano-N-(2,4-difluorophenyl)-3-(2,5-difluorophenyl)prop-2-enamide] | 91.2%
22 | N#CC(=Cc1ccc(Cl)cc1)C(=O)Nc1nccs1 [8-C11, 3-(4-chlorophenyl)-2-cyano-N-(1,3-thiazol-2-yl)prop-2-enamide] | 79%
23 | CC(=O)Nc1ccc(NC(=O)C(C#N)=Cc2cc(F)ccc2F)cc1 [8-C12, 2-cyano-3-(2,5-difluorophenyl)-N-(4-acetamidophenyl)prop-2-enamide] | 57.6%
24 | N#CC(=Cc1ccccc1)C(=O)Nc1ccccc1F [8-C13, 2-cyano-N-(2-fluorophenyl)-3-phenylprop-2-enamide] | 69.6%
25 | Cc1ccc(C=C(C#N)C(=O)Nc2ccc(C(=O)O)cc2)o1 [8-C14, 4-[2-cyano-3-(5-methylfuran-2-yl)prop-2-enamido]benzoic acid] | 109%

Row | SMILES | viability at 48 h, 25 µM
26 | N#CC(=Cc1ccccc1Cl)C(=O)Nc1cccc2ncccc12 [8-C15, 3-(2-chlorophenyl)-2-cyano-N-(quinolin-5-yl)prop-2-enamide] | 51%
27 | COc1cccc(NC(=O)C(C#N)=Cc2ccc(C)cc2C)c1 [8-C16, 2-cyano-3-(2,4-dimethylphenyl)-N-(3-methoxyphenyl)prop-2-enamide] | 91.5%
28 | C=CCNC(=O)C(C#N)=Cc1cc(C)n(-c2ccc(C)cc2)c1C [8-C17, 2-cyano-3-[2,5-dimethyl-1-(4-methylphenyl)-1H-pyrrol-3-yl]-N-(prop-2-en-1-yl)prop-2-enamide] | 60.7%
29 | Cc1cccc(NC(=O)C(C#N)=Cc2cc(C)c(C)cc2C)c1 [8-C18, 2-cyano-N-(3-methylphenyl)-3-(2,4,5-trimethylphenyl)prop-2-enamide] | 92.9%
30 | CC1CCCC(NC(=O)C(C#N)=Cc2ccccc2)C1C (centres unmarked) [8-C19, 2-cyano-N-(2,3-dimethylcyclohexyl)-3-phenylprop-2-enamide] | 27.3%
31 | N#CC(=CN1CCN(c2ccccc2)CC1)C(=O)Nc1ccc(F)cc1 [8-C20, 2-cyano-N-(4-fluorophenyl)-3-(4-phenylpiperazin-1-yl)prop-2-enamide] | 72.5%
32 | COc1ccc(C=C(C#N)C(=O)Nc2ccccc2Cl)cc1O [8-C21, N-(2-chlorophenyl)-2-cyano-3-(3-hydroxy-4-methoxyphenyl)prop-2-enamide] | 82.8%
33 | N#CC(=Cc1cc2cc(F)ccc2o1)C(=O)NC(N)=O [8-C22, {2-cyano-2-[(5-fluoro-1-benzofuran-2-yl)methylidene]acetyl}urea] | 79.1%
34 | Cn1ccnc1Sc1ccc(C=C(C#N)C(N)=O)cc1[N+](=O)[O-] [8-D03, 2-cyano-3-{4-[(1-methyl-1H-imidazol-2-yl)sulfanyl]-3-nitrophenyl}prop-2-enamide] | 135%
35 | N#CC(=Cc1ccc(F)c([N+](=O)[O-])c1)C(=O)Nc1ccc(F)cc1 [8-D04, 2-cyano-3-(4-fluoro-3-nitrophenyl)-N-(4-fluorophenyl)prop-2-enamide] | 1.12%
36 | C=CCNC(=O)C(C#N)=Cc1cccc(C)c1 [8-D05, 2-cyano-3-(3-methylphenyl)-N-(prop-2-en-1-yl)prop-2-enamide] | 102%
37 | Cc1ccc(NC(=O)C(C#N)=Cc2cccc(Cl)c2Cl)cc1 [8-D06, 2-cyano-3-(2,3-dichlorophenyl)-N-(4-methylphenyl)prop-2-enamide] | 69.5%
38 | N#CC(=Cc1cccc(Oc2ccccc2)c1)C(=O)NC(N)=O [8-D07, {2-cyano-2-[(3-phenoxyphenyl)methylidene]acetyl}urea] | 134%
39 | N#CC(=Cc1ccc([N+](=O)[O-])c(Cl)c1)C(=O)NCc1ccccc1 [8-D08, N-benzyl-3-(3-chloro-4-nitrophenyl)-2-cyanoprop-2-enamide] | 1.37%
40 | Cc1ccc(NC(=O)C(C#N)=Cc2ccc(C)s2)c(C)c1 [8-D09, 2-cyano-N-(2,4-dimethylphenyl)-3-(5-methylthiophen-2-yl)prop-2-enamide] | 99.2%
41 | Cc1ccccc1NC(=O)C(C#N)=Cc1cccnc1 [8-D10, 2-cyano-N-(2-methylphenyl)-3-(pyridin-3-yl)prop-2-enamide] | 95.5%
42 | COc1ccc(NC(=O)C(C#N)=Cc2ccc(-c3ccccc3)cc2)cc1 [8-D11, 3-{[1,1'-biphenyl]-4-yl}-2-cyano-N-(4-methoxyphenyl)prop-2-enamide] | 103%
43 | CC(=O)Nc1ccc(C=C(C#N)C(=O)NCc2ccccc2)cc1 [8-D12, N-benzyl-2-cyano-3-(4-acetamidophenyl)prop-2-enamide] | 84.4%
44 | CC1=CSC(=C(C#N)C(=O)NCc2ccco2)N1c1ccccc1 [8-D13, 2-cyano-N-[(furan-2-yl)methyl]-2-(4-methyl-3-phenyl-2,3-dihydro-1,3-thiazol-2-ylidene)acetamide] | 114%
45 | N#CC(=Cc1c2ccccc2cc2ccccc12)C(=O)NC1CCCCC1 [8-D14, 3-(anthracen-9-yl)-2-cyano-N-cyclohexylprop-2-enamide] | 94.6%
46 | Cc1ccc(NC(=O)C(C#N)=Cc2cccs2)c(C)c1 [8-D15, 2-cyano-N-(2,4-dimethylphenyl)-3-(thiophen-2-yl)prop-2-enamide] | 101%
47 | Cc1[nH]c2ccccc2c1C=C(C#N)C(=O)NCc1ccccc1 [8-D16, N-benzyl-2-cyano-3-(2-methyl-1H-indol-3-yl)prop-2-enamide] | 96.6%
48 | N#CC(=CC(Cl)=Cc1ccccc1)C(=O)NC1CCCCC1 [8-D17, 4-chloro-2-cyano-N-cyclohexyl-5-phenylpenta-2,4-dienamide] | 7.44%
49 | N#CC(=Cc1c(F)cccc1F)C(=O)NCCc1ccccc1 [8-D18, 2-cyano-3-(2,6-difluorophenyl)-N-(2-phenylethyl)prop-2-enamide] | 47.1%
50 | Cc1ccccc1NC(=O)C(C#N)=Cc1cc(C)n(CC(C)C)c1C [8-D19, 2-cyano-3-[2,5-dimethyl-1-(2-methylpropyl)-1H-pyrrol-3-yl]-N-(2-methylphenyl)prop-2-enamide] | 118%
